# Source: paper PMC5967867, “An NMDAR positive and negative allosteric modulator series share a binding site and are interconverted by methyl groups” (eLife, 2018)
# System: diheteromeric NMDARs
# Test: Two-electrode voltage-clamp recordings, statements across all diheteromeric NMDARs
# Type: cell-based, rat
# Experimental: cDNAs for rat wild type NMDAR subunits GluN1-1a (GenBank U11418, U08261; hereafter GluN1 or GluN1a), GluN1-1b (U08263, hereafter GluN1b), GluN2A (D13211), GluN2B (U11419), GluN2C (M91563), and GluN2D (L31611, modified as described in [Monyer et al., 1994]) were provided by Drs. S. Heinemann (Salk Institute), S. Nakanishi (Kyoto University), and P. Seeburg (University of Heidelberg). Site-directed mutagenesis was conducted using the QuikChange kit (Agilent Technologies, Santa Clara, CA) following the recommended protocol. DNA sequencing was used to verify all mutations. The amino acid numbering system started with the initiating methionine as residue number one. For expression in Xenopus laevis oocytes, cDNA constructs were linearized by restriction enzymes, and subsequently used to synthesize in vitro cRNAs following the manufacturer’s protocol (mMessage mMachine, Ambion, ThermoFisher Scientific, Waltham, MA).
# Xenopus laevis stage VI oocytes (Ecocyte Biosciences, Austin, TX) were injected as previously described ([Hansen et al., 2013]) 2–7 days prior to recording with cRNA encoding the NMDAR subunits and stored at 15°C in media containing (in mM) 88 NaCl, 2.4 NaHCO3, 1 KCl, 0.33 Ca(NO3)2, 0.41 CaCl2, 0.82 MgSO4, 5 Tris-HCl; pH was adjusted to 7.4 with NaOH and the solution supplemented with 1 U/mL penicillin, 0.1 mg/mL gentamicin sulfate, and 1 μg/mL streptomycin. Two-electrode voltage-clamp recordings were performed at room temperature (21–23°C) using different internal solutions for voltage and current electrodes (0.3 M and 3.0 M KCl, respectively). All extracellular solutions were made from a solution containing (in mM) 90 NaCl, 1 KCl, 10 HEPES, 0.5 BaCl2, 0.01 EDTA (pH 7.4 with NaOH). Experiments were performed using an eight port Modular Valve Positioner (Hamilton Company, Reno, NV) and controlled by custom software (Easy Oocyte, Emory University, Atlanta, GA)to exchange solutions. Oocyte currents were recorded at a holding potential of −40 mV using a two-electrode voltage-clamp amplifier (OC-725B or OC-725C, Warner Instruments, Hamden, CT). […]
smiles,measurement,setting,value
"CCOC(=O)c1c(NC(=O)CC2SC(=N)NC2=O)sc2c1CCCC2 (stereo not drawn) [EU1794-4, ethyl 2-(2-(2-imino-4-oxothiazolidin-5-yl)acetamido)-4,5,6,7-tetrahydrobenzo[b]thiophene-3-carboxylate]",potency of (-) enantiomer relative to (+) enantiomer,"inhibition, across subtypes",3–10 fold
same,residual current at saturating levels,saturating EU1794-4,30–60%
same,saturated inhibition,"saturating modulator and agonist, across NMDAR subtypes",40–70 % of control
